Earlier results as cited in patent US20060136139A1, “Rapid computational identification of targets” (priority 2004, published 2006).

Columns and labels:
PP1 = conditions: experimental value beside the computed energy
PP2C = conditions: experimental value beside the computed energy
PP2B = conditions: experimental value beside the computed energy
PP2A = conditions: experimental value beside the computed energy
[1] = at concentrations used in experimental inhibition studies

Row | SMILES | IC50 (PP1) | IC50 (PP2C) | IC50 (PP2B) | IC50 (PP2A) | aggregation of kinase inhibitor [1]
1 | C=C1[C@@H](O)[C@@H]2O[C@]3(CC[C@H](/C=C/[C@@H](C)[C@@H]4CC(C)=C[C@@]5(O[C@H](C[C@@](C)(O)C(=O)O)CC[C@H]5O)O4)O3)CC[C@H]2O[C@@H]1[C@@H](O)C[C@H](C)[C@H]1O[C@@]2(CCCCO2)CC[C@H]1C [okadaic acid] | 42 nM | > 10000 nM | 5000 nM | 0.51 nM | 
2 | O=c1c(O)c(-c2ccc(O)c(O)c2)oc2cc(O)cc(O)c12 [quercetin] |  |  |  |  | exhibit this behavior
